Reference: patent US5759768A, “Assays for factors affecting circularization of DNA, assays for factors affecting DNA integration, factors, and uses thereof” (priority 1995, dated 1998)
Entries after “also recorded” stand apart in the source; their conditions may differ.

Assays:
[1] = test system: linear viral DNA (circularization); format: biochemical, HIV-1
Protocol: The chronically HIV-1 infected Molt IIIB human T cell line (HTLV IIIB virus strain) was the source of virus for cell-free infections. This human T cell line constitutively produces a low level of the HTLV-111B strain of HIV-1. Culture supernatant containing a high concentration of virus was prepared by incubating 300×10^6 Molt IIIB cells in 50 ml fresh RPMI 1640 medium containing 20% fetal calf serum and 10 ng of phorbol 12-myristate 13-acetate per ml for 20-24 hours. […] Cytoplasmic extracts (3 ml) were prepared 4-4.5 hours post-infection, by a modification of the procedure of Brown et al., Cell 49: 342-356 (1987).
At specified times after infection, cells were washed twice with buffer K (20 mM Hepes, pH 7.4, 150 mM KCl, 5 mM MgCl2, 1 mM dithiothreitol, […]) and then lysed at a concentration of 33×10^6 cells per ml in the same buffer containing 0.025% digitonin or 0.025% Triton X-100. Cells were extracted for 10 minutes at room temperature, and the lysate was centrifuged at 1000×g for 3 minutes, and is referred to as "cytoplasmic extract". Cytoplasmic extract was the source of viral DNA for analyses in the assays described below. The pellet from the initial low-speed centrifugation contained cell debris and intact nuclei and is called the "nuclear pellet". Cell extracts from uninfected SupT1 cells were prepared in the same manner.
Viral DNA present in cytoplasmic extracts was deproteinated by incubation with proteinase K (1 mg/ml)/10 mM EDTA/0.5% SDS for 1 hour at 55° C. Samples were extracted successively with phenol/chloroform [1:1 (vol/vol)] and chloroform. DNA was ethanol-precipitated, washed with 70% ethanol, resuspended in 10 mM Tris.HCI (pH 7.4), and treated with RNase A (20 μpg/ml)for 1 hour at […]. before analysis by agarose gel electrophoresis and Southern blotting.
DNA samples were layered on 0.8% agarose gels and electrophoresed at 1 V/cm for 15 hour in Tris/acetate/EDTA buffer. After electrophoresis, DNA was blotted by capillary action onto nitrocellulose (0.45 μm, Schleicher & Schuell).
Cell extracts were prepared from cells four to five hours after infection with HIV-1, using the above-described methods to yield fully functional viral preintegration complexes. […] In all cases, a HIV-1 LTR-containing DNA fragment was used as a hybridization probe. Therefore, only LTR-containing DNA fragments are detected. […] Lane 5: Unintegrated viral DNA prepared by Hirt extraction of SupT1 cells infected 24 hours earlier with concentrated HIV-1. […] Viral DNA was purified from extracts incubated with 1 mM ATP for 15 minutes (lanes 1 and 4), with 1 mM ATP for 45 minutes (lanes 3 and 6), or with 1 mM ATPγS for 45 minutes (lanes 2 and 5). Lanes 1-3: uncut viral DNA; lanes 4-6: viral DNA was cut with SalI prior to electrophorosis. Lane 7: linear viral DNA, prepared from untreated extracts was digested with SalI prior to electrophorosis. Lane 8: unintegrated viral DNA prepared by Hirt extraction of infected cells, as described with respect to FIG. 14, digested with SalI prior to electrophoresis. […] Lanes 1-3. Viral DNA prepared from extracts treated with 1 mM ATP for 15 minutes, 30 minutes and 45 minutes, respectively. Lane 4: Viral DNA prepared from extract treated with 1 mM ATPγS for 45 minutes. Lanes 5-7: products of reactions shown in lanes 1-3, respectively, digested with SalI and PstI prior to electrophoresis. Lane 8: SalI, PstI digestion of viral DNA prepared from extract treated with 1 mM ATP for 90 minutes. Lane 9: SalI, PstI digestion of reaction products shown in lane 4. Lane 10: SalI, PstI digestion of unintegrated viral DNA prepared by Hirt extraction of infected cells.

[2] = test system: viral DNA (circularization versus integration into .phi.X174 target DNA); test: Circularization versus integration (competition) in cytoplasmic extracts from infected cells; format: biochemical, HIV-1
Protocol: Circularization of the linear viral DNA present in cytoplasmic extracts was competitive with integration into heterologous DNA targets (FIG. 28). In FIG. 28, cytoplasmic extracts from infected cells were incubated at 37° C. as follows: Lane 1; incubation with 10 μg/ml .phi.X174 DNA for 45 minutes, lane 2, incubation with 1 mM ATP for 45 minutes; lane 3, incubation with […] .phi.X174 DNA and 1 mM ATP for 45 minutes; lane 4, incubation with 10 μg/ml .phi.X174 DNA for 45 minutes, followed by incubation with 1 mM ATP for 45 minutes; lane 5, incubation with 1 mM ATP for 45 minutes, followed by incubation with 10 μg/ml .phi.X174 DNA for 45 minutes; lane 6, incubation with nothing added for 45 minutes, followed by incubation with 10 μg/ml .phi.X174 DNA for 45 minutes. In FIG. 29, lanes 1-6, cytoplasmic extracts from infected cells were incubated at 37° C. for 45 minutes in the presence of 1 mM ATP and .phi.X174 DNA at a concentration of 0 μg/ml (lane 1), 0.3 μg/ml (lane 2), 0.8 μg/ml (lane 3), 1.6 μg/ml (lane 4), 3.2 μg/ml (lane 5), or 6.4 μg/ml (lane 6). Lane 7, extract incubated with 6.4 μg/ml .phi.X174 DNA for 45 minutes in the absence of added ATP. In FIG. 30, cytoplasmic extracts from infected cells were incubated at 37° C. for 60 minutes with nothing added (lane 1), with 6.4 μg/ml .phi.X174 DNA and 1 mM ATPγS (lane 2), or with 1 mM […] (lane 3). […]

SMILES	formation of circular viral DNA species ([1]; 1 mM, 37° C., 45 min, no target DNA)	1-LTR circle formation ([1]; 5 mM ATP)	formation of 2-LTR circles ([1]; 5 mM ATP)	ATP concentration of peak 1-LTR circle formation ([1]; 37° C., 45 or 90 min)	optimal ATP concentration for formation of 2-LTR circles ([1]; 37° C., 45 or 90 min)	1-LTR [ATP] optimum ([1]; table)	Autointegration [ATP] optimum ([1]; table)	circular or integrated product ([2]; ATP (1 mM) and target DNA together, versus either alone, 45 min)	integration of viral DNA into target DNA ([2]; preincubation with 1 mM ATP for 45 min prior to target DNA)	induction of 1-LTR circular form ([1]; 1 mM, 37° C., 45 min)	induction of 2-LTR circles ([1]; 1 mM, 37° C., 45 min)	1-LTR circles (restriction analysis) ([1]; 1 mM, 45 min)	origin of 2-LTR circles (SalI/PstI digestion) ([1]; 1 mM, 45 min)	simple 2-LTR circles (SalI/PstI digestion) ([1]; 1 mM, 45 min)	type of circular viral DNA formed ([1]; 1 mM, 45 min, restriction enzyme analysis)
Nc1ncnc2c1ncn2[C@@H]1O[C@H](COP(=O)(O)OP(=O)(O)OP(=O)(O)O)[C@@H](O)[C@H]1O [ATP, adenosine triphosphate]	formation of two viral DNA species that migrated more slowly than the linear form of viral DNA	considerable	completely inhibited	2 mM	1 mM	2 mM	1 mM	the amount of circular or integrated product produced was reduced	integration of viral DNA into target DNA was prevented; also recorded: unable to integrate during a subsequent incubation with target DNA	–	–	–	–	–	–
Nc1ncnc2c1ncn2[C@@H]1O[C@H](COP(=O)(O)OP(=O)(O)OP(O)(O)=S)[C@@H](O)[C@H]1O [ATPγS]	–	–	–	–	–	–	–	–	–	unable to induce detectable amounts of the 1-LTR circular forms	induced the formation of 2-LTR circles	no detectable 1-LTR circles	entirely the products of autointegration	absence of simple 2-LTR circles among the reaction products	exclusively of the 2-LTR type
